Assay results reported in ChEMBL document CHEMBL1201862, “PubChem BioAssay data set” (2004).
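Results reflect a 48-hour exposure of cells in 96-well plates to compound at five concentrations. At the GI50, growth is halved.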 Calls of active or inactive are those of the source. Rule as the data show it: active = GI50 up to about 1.1 µM and inactive = higher.

How the values were obtained:
Experiment in all cases: NCI anticancer screen, dose series, 48 h
OVCAR-5 = tested on: OVCAR-5
NCI-H23 = tested on: NCI-H23
HOP-18 = tested on: HOP-18
SF-539 = tested on: SF-539
SR = tested on: SR
HCT-116 = tested on: HCT-116
LOX IMVI = tested on: LOX IMVI
A498 = tested on: A498
DLD-1 = tested on: DLD-1
OVCAR-3 = tested on: OVCAR-3
HL-60 = tested on: HL-60
K562 = tested on: K562
OVCAR-8 = tested on: OVCAR-8
SK-OV-3 = tested on: SK-OV-3
SW-620 = tested on: SW-620
XF498 = tested on: XF498
HOP-92 = tested on: HOP-92
SK-MEL-2 = tested on: SK-MEL-2
U-251 = tested on: U-251
SF-295 = tested on: SF-295
OVCAR-4 = tested on: OVCAR-4
CCRF-CEM = tested on: CCRF-CEM
RXF 393 = tested on: RXF 393
UACC-257 = tested on: UACC-257
Malme-3M = tested on: Malme-3M
KM12 = tested on: KM12
CAKI-1 = tested on: CAKI-1
TK-10 = tested on: TK-10
UACC-62 = tested on: UACC-62
ACHN = tested on: ACHN
SK-MEL-5 = tested on: SK-MEL-5
SK-MEL-28 = tested on: SK-MEL-28
786-0 = tested on: 786-0
HOP-62 = tested on: HOP-62
NCI-H522 = tested on: NCI-H522
HCT-15 = tested on: HCT-15
A549 = tested on: A549
MOLT-4 = tested on: MOLT-4
DMS-273 = tested on: DMS-273
LXFL 529 = tested on: LXFL 529
NCI-H460 = tested on: NCI-H460
SNB-19 = tested on: SNB-19
RPMI-8226 = tested on: RPMI-8226
M14 = tested on: M14
EKVX = tested on: EKVX
DMS-114 = tested on: DMS-114
KM-20L2 = tested on: KM-20L2
SF-268 = tested on: SF-268
SN12C = tested on: SN12C
NCI-H226 = tested on: NCI-H226
UO-31 = tested on: UO-31
SNB-78 = tested on: SNB-78
IGROV-1 = tested on: IGROV-1
HCC 2998 = tested on: HCC 2998
M19-MEL = tested on: M19-MEL
HT-29 = tested on: HT-29
COLO 205 = tested on: COLO 205
SNB-75 = tested on: SNB-75

N#Cc1c2ccccc2c(Cc2ccc3c(c2)OCCOCCOCCOCCOCCO3)c2ccccc12
GI50 (OVCAR-5): 16.4 µM (inactive) | GI50 (NCI-H23): 11.4 µM (inactive) | GI50 (HOP-18): 10.1 µM (inactive) | GI50 (SF-539): 14.1 µM (inactive) | GI50 (SR): 24.5 µM (inactive) | GI50 (HCT-116): 6.12 µM (inactive) | GI50 (LOX IMVI): 6.04 µM (inactive) | GI50 (A498): 13.3 µM (inactive) | GI50 (DLD-1): 10.3 µM (inactive) | GI50 (OVCAR-3): 4.23 µM (inactive) | GI50 (HL-60): 1.85 µM (inactive) | GI50 (K562): 3.15 µM (inactive) | GI50 (OVCAR-8): 5.65 µM (inactive) | GI50 (SK-OV-3): 13.6 µM (inactive) | GI50 (SW-620): 6.71 µM (inactive) | GI50 (XF498): 10.5 µM (inactive) | GI50 (HOP-92): 3.99 µM (inactive) | GI50 (SK-MEL-2): 6.34 µM (inactive) | GI50 (U-251): 9.44 µM (inactive) | GI50 (SF-295): 8.69 µM (inactive) | GI50 (OVCAR-4): 3 µM (inactive) | GI50 (CCRF-CEM): 3.21 µM (inactive) | GI50 (RXF 393): 2.32 µM (inactive) | GI50 (UACC-257): 9.27 µM (inactive) | GI50 (Malme-3M): 6.44 µM (inactive) | GI50 (KM12): 5.5 µM (inactive) | GI50 (CAKI-1): 10.1 µM (inactive) | GI50 (TK-10): 5.01 µM (inactive) | GI50 (UACC-62): 6.41 µM (inactive) | GI50 (ACHN): 9.86 µM (inactive) | GI50 (SK-MEL-5): 4.35 µM (inactive) | GI50 (SK-MEL-28): 3.28 µM (inactive) | GI50 (786-0): 10.9 µM (inactive) | GI50 (HOP-62): 10.3 µM (inactive) | GI50 (NCI-H522): 10.8 µM (inactive) | GI50 (HCT-15): 5.57 µM | GI50 (A549): 4.29 µM (inactive) | GI50 (MOLT-4): 2.82 µM (inactive) | GI50 (DMS-273): 4.68 µM (inactive) | GI50 (LXFL 529): 5.46 µM (inactive) | GI50 (NCI-H460): 6.7 µM (inactive) | GI50 (SNB-19): 9.66 µM (inactive) | GI50 (RPMI-8226): 3.11 µM (inactive) | GI50 (M14): 5.37 µM (inactive) | GI50 (EKVX): 16.3 µM (inactive) | GI50 (DMS-114): 10.4 µM (inactive) | GI50 (KM-20L2): 10 µM (inactive) | GI50 (SF-268): 5.28 µM (inactive) | GI50 (SN12C): 10.1 µM (inactive) | GI50 (NCI-H226): 11.9 µM (inactive) | GI50 (UO-31): 3.85 µM (inactive) | GI50 (SNB-78): 9.14 µM (inactive) | GI50 (IGROV-1): 4.34 µM (inactive) | GI50 (HCC 2998): 11.8 µM (inactive)

CC1(C)OC(=O)C(=C2CCC(C(=O)Nc3cccc(C(F)(F)F)c3)N2)C(=O)O1 (stereo unspecified)
GI50 (OVCAR-5): > 100 µM (inactive) | GI50 (NCI-H23): > 100 µM (inactive) | GI50 (HOP-18): > 100 µM (inactive) | GI50 (SF-539): > 100 µM (inactive) | GI50 (HCT-116): > 100 µM (inactive) | GI50 (M19-MEL): 60.8 µM (inactive) | GI50 (LOX IMVI): 60.4 µM (inactive) | GI50 (A498): 66.1 µM (inactive) | GI50 (DLD-1): > 100 µM (inactive) | GI50 (OVCAR-3): 82 µM (inactive) | GI50 (HL-60): 67.8 µM (inactive) | GI50 (K562): 33.4 µM (inactive) | GI50 (OVCAR-8): > 100 µM (inactive) | GI50 (SK-OV-3): > 100 µM (inactive) | GI50 (SW-620): > 100 µM (inactive) | GI50 (XF498): 31.3 µM (inactive) | GI50 (HOP-92): 56.2 µM (inactive) | GI50 (SK-MEL-2): > 100 µM (inactive) | GI50 (U-251): > 100 µM (inactive) | GI50 (SF-295): 75.5 µM (inactive) | GI50 (OVCAR-4): 61.4 µM (inactive) | GI50 (CCRF-CEM): 44.8 µM (inactive) | GI50 (RXF 393): 84.1 µM (inactive) | GI50 (UACC-257): 40.3 µM (inactive) | GI50 (Malme-3M): 50.1 µM (inactive) | GI50 (KM12): 60.3 µM (inactive) | GI50 (CAKI-1): 9.77 µM (inactive) | GI50 (TK-10): 86.9 µM (inactive) | GI50 (UACC-62): 45.2 µM (inactive) | GI50 (ACHN): 50.2 µM (inactive) | GI50 (SK-MEL-5): 30.1 µM (inactive) | GI50 (SK-MEL-28): 97.7 µM (inactive) | GI50 (786-0): > 100 µM (inactive) | GI50 (HOP-62): > 100 µM (inactive) | GI50 (NCI-H522): 39.8 µM (inactive) | GI50 (HCT-15): > 100 µM | GI50 (A549): > 100 µM (inactive) | GI50 (MOLT-4): 26.7 µM (inactive) | GI50 (DMS-273): > 100 µM (inactive) | GI50 (LXFL 529): 39.6 µM (inactive) | GI50 (HT-29): 75.7 µM (inactive) | GI50 (NCI-H460): 62.5 µM (inactive) | GI50 (SNB-19): 41.2 µM (inactive) | GI50 (RPMI-8226): 51.2 µM (inactive) | GI50 (M14): 64 µM (inactive) | GI50 (EKVX): 50.6 µM (inactive) | GI50 (DMS-114): 37.4 µM (inactive) | GI50 (KM-20L2): 68.4 µM (inactive) | GI50 (SF-268): > 100 µM (inactive) | GI50 (SN12C): > 100 µM (inactive) | GI50 (NCI-H226): 91 µM (inactive) | GI50 (UO-31): > 100 µM (inactive) | GI50 (SNB-78): 87.7 µM (inactive) | GI50 (IGROV-1): > 100 µM (inactive) | GI50 (COLO 205): > 100 µM (inactive) | GI50 (SNB-75): > 100 µM (inactive) | GI50 (HCC 2998): 43.7 µM (inactive)
